Test systems include MOLM-13; ML-2; MV4-11; U937; CMK; CMS; M07e; CHRF288-11.
What all share (parameters): species or system AML cell lines (8); Primary HTS, single concentration about 10 uM, Cell Titer Glo viability; log10 luminescence, per cent inhibition relative to cycloheximide control
What all share (settings): 72 h, relative to cycloheximide control, log10 luminescence, inhibitor
In general terms: ATP-based viability assays read luminescence as a measure of living cells.

SMILES strings stand for the structures. Structures can show the parent of a compound that is named as a salt. Where two headings read alike, the source gives them in different places.

For the compound `CN(C)[C@@H]1C(=O)C(C(N)=O)=C(O)[C@@]2(O)C(=O)C3=C(O)c4c(O)cccc4[C@@](C)(O)[C@H]3[C@H](O)[C@@H]12` [SJ000285682-4, OXYTETRACYCLINE | OXYTETRACYCLINE DIHYDRATE | OXYTETRACYCLINE HYDROCHLORIDE | OXYTETRACYCLINE (TERRAMYCIN)], in the test with MOLM-13, the MOLM-13 %inh came out at 3.957%. Further, the ML-2 %inh with ML-2 stood at 0.3169%. Moreover, in the test on MV4-11, the MV4-11 %inh was -1.23%. Moreover, the U937 %inh in the test on U937 is 0.3352%. Besides, in the test on CMK, the CMK %inh was -2.364%. Besides, the CMS %inh in the test with CMS is recorded as 0.1991%. The M07e %inh in the test on M07e is given as -0.1554%. Besides, in the test with CHRF288-11, the CHRF288-11 %inh came to 25.02%.

Take `CC1(C)O[C@@H]2C[C@H]3[C@@H]4C[C@H](F)C5=CC(=O)CC[C@]5(C)[C@H]4[C@@H](O)C[C@]3(C)[C@]2(C(=O)CO)O1` [SJ000287138-3, FLURANDRENOLIDE]: in the test on MOLM-13, the MOLM-13 %inh was -1.421%. Moreover, the ML-2 %inh with ML-2 is recorded as -1.728%. In addition, the MV4-11 %inh with MV4-11 is -1.501%. Moreover, the U937 %inh with U937 amounted to 5.849%. For the same compound, in the test on CMK, the CMK %inh is -0.8734%. In the test on CMS, the CMS %inh turned out to be 0.1237%. Further, in the test with M07e, the M07e %inh is reported as -0.6056%. In the test with CHRF288-11, the CHRF288-11 %inh is reported as 7.802%.

As for `O=C1NC(=NCc2ccccc2Br)S/C1=C\c1ccc2ncccc2c1` [SJ000581153-1], the MOLM-13 %inh in the test with MOLM-13 is 2.882%. Further, the ML-2 %inh in the test on ML-2 was determined as 3.418%. For the same compound, the MV4-11 %inh in the test with MV4-11 was determined as 3.118%. The U937 %inh in the test on U937 is on record as 5.903%. For the same compound, the CMK %inh in the test with CMK came out at 1.742%. The CMS %inh in the test with CMS worked out at 1.226%. Also, the M07e %inh in the test on M07e stood at 7.782%. In addition, the CHRF288-11 %inh in the test on CHRF288-11 is 2.479%.

In the case of `COc1cc2ncn(-c3cc(OCc4ccccc4Cl)c(C(N)=O)s3)c2cc1OC` [SJ000573023-1, U22436/143/1], in the test with MOLM-13, the MOLM-13 %inh is on record as 81.3%. Further, the ML-2 %inh with ML-2 was 36.08%. For the same compound, the MV4-11 %inh with MV4-11 was found to be 72.02%. In the test with U937, the U937 %inh was determined as 71.67%. In addition, the CMK %inh in the test on CMK was determined as 98.04%. Besides, the CMS %inh in the test with CMS was found to be 71.19%. Moreover, the M07e %inh in the test on M07e worked out at 101%. The CHRF288-11 %inh in the test with CHRF288-11 is 71.75%.

Take `CC1(COc2ccc(CC3SC(=O)NC3=O)cc2)CCCCC1` (centres unmarked) [SJ000546494-1, CIGLITAZONE]: the MOLM-13 %inh in the test with MOLM-13 is listed as -0.9508%. Moreover, in the test with ML-2, the ML-2 %inh worked out at 1.382%. In addition, the MV4-11 %inh in the test on MV4-11 is given as 4.011%. In the test on U937, the U937 %inh is recorded as 0.7442%. For the same compound, the CMK %inh in the test on CMK is 0.5377%. For the same compound, the CMS %inh with CMS was -1.931%. Moreover, the M07e %inh in the test on M07e is -0.4942%. Besides, the CHRF288-11 %inh with CHRF288-11 is 3.672%.

As to `CC(=O)Nc1ccc2c(C3=C(c4cn(C)c5ccccc45)C(=O)NC3=O)cn(C)c2c1` [SJ000581111-1], in the test with MOLM-13, the MOLM-13 %inh is 95.13%. In the test with ML-2, the ML-2 %inh was found to be 39.48%. In the test with MV4-11, the MV4-11 %inh amounted to 74.04%. Further, in the test with U937, the U937 %inh was found to be 75.9%. In the test with CMK, the CMK %inh was determined as 104.7%. Also, the CMS %inh in the test on CMS is 99.23%. Besides, the M07e %inh in the test on M07e was 89.33%. Also, in the test with CHRF288-11, the CHRF288-11 %inh is 123.6%.

Take `O=C1OC(=O)C(c2c[nH]c3ccccc23)=C1c1c[nH]c2ccccc12` [SJ000581166-1]: the MOLM-13 %inh in the test with MOLM-13 turned out to be 3.376%. Moreover, the ML-2 %inh in the test with ML-2 is given as 2.957%. Also, the MV4-11 %inh in the test on MV4-11 is listed as 1.035%. The U937 %inh in the test with U937 is given as 1.32%. In the test with CMK, the CMK %inh came to 0.5161%. Besides, the CMS %inh in the test on CMS was 5.505%. Moreover, the M07e %inh in the test on M07e was -1.376%. Moreover, the CHRF288-11 %inh with CHRF288-11 is on record as 5.422%.

For `Cc1cc(O)cc(C)c1/C=C/c1cncc(C(N)=O)c1` [SJ000573068-1, U11805/173/2], the MOLM-13 %inh in the test on MOLM-13 amounted to 75.99%. The ML-2 %inh with ML-2 was determined as 51.45%. In addition, the MV4-11 %inh in the test on MV4-11 is given as 70.37%. In addition, the U937 %inh in the test with U937 turned out to be 80.88%. The CMK %inh in the test with CMK is reported as 90.65%. In addition, the CMS %inh in the test on CMS is reported as 51.62%. Also, in the test with M07e, the M07e %inh was 72.97%. In the test with CHRF288-11, the CHRF288-11 %inh was 44.74%.

Regarding `CC(CO)Nc1cc(-c2[nH]c3cccnc3c2-c2ccc(F)cc2)ccn1` (centres unmarked) [SJ000581157-1], the MOLM-13 %inh in the test with MOLM-13 came out at 1.967%. Also, in the test on ML-2, the ML-2 %inh is 3.05%. Moreover, in the test on MV4-11, the MV4-11 %inh is recorded as 5.71%. For the same compound, the U937 %inh in the test on U937 was 3.658%. Further, the CMK %inh in the test on CMK came to 13.38%. Further, the CMS %inh with CMS came out at 7.57%. In addition, in the test with M07e, the M07e %inh is listed as 3.935%. Besides, the CHRF288-11 %inh with CHRF288-11 worked out at 7.035%.

On to `CCC(=O)O[C@]1(C(=O)CCl)[C@@H](C)C[C@H]2[C@@H]3C[C@H](F)C4=CC(=O)C=C[C@]4(C)[C@@]3(F)[C@@H](O)C[C@@]21C` [SJ000574311-1, HALOBETASOL PROPIONATE], for which the MOLM-13 %inh in the test on MOLM-13 is recorded as -1.713%. For the same compound, the ML-2 %inh in the test with ML-2 came to 0.4055%. In addition, the MV4-11 %inh with MV4-11 stood at 1.288%. Further, in the test with U937, the U937 %inh was 2.458%. For the same compound, the CMK %inh with CMK is listed as -5.875%. In addition, the CMS %inh in the test with CMS is reported as -1.131%. Moreover, the M07e %inh in the test with M07e is reported as 1.449%. Besides, the CHRF288-11 %inh with CHRF288-11 is recorded as 2.781%.

Regarding `CCC(=O)Nc1ccc(C)c(-c2ccc(C(=O)NCC3CC3)cc2)c1` [SJ000573087-1, R7387/20/4], the MOLM-13 %inh in the test on MOLM-13 came out at 6.641%. The ML-2 %inh in the test with ML-2 is given as -0.3215%. In addition, the MV4-11 %inh in the test with MV4-11 worked out at 5.047%. Also, in the test on U937, the U937 %inh was found to be 1.348%. For the same compound, the CMK %inh with CMK came out at 1.803%. Besides, the CMS %inh in the test with CMS was found to be 2.476%. In the test with M07e, the M07e %inh is 5.006%. For the same compound, the CHRF288-11 %inh with CHRF288-11 is 3.258%.

Take `Cc1ccc(C)c(OCCCC(C)(C)C(=O)O)c1` [SJ000285775-4, GEMFIBROZIL]: the MOLM-13 %inh with MOLM-13 (MOLM-13 %inh, 10 µM) worked out at 2.26%. For the same compound, the ML-2 %inh in the test on ML-2 (ML-2 %inh, 10 µM) is listed as -0.7985%. Also, the MV4-11 %inh in the test on MV4-11 (MV4-11 %inh, 10 µM) amounted to 1.327%. Further, in the test on U937 (U937 %inh, 10 µM), the U937 %inh is listed as -0.006863%. For the same compound, the CMK %inh with CMK (CMK %inh, 10 µM) stood at 2.032%. Also, the CMS %inh in the test with CMS (CMS %inh, 10 µM) is on record as 6.72%. Besides, in the test on M07e (M07e %inh, 10 µM), the M07e %inh was found to be 3.732%. For the same compound, in the test on CHRF288-11 (CHRF288-11 %inh, 10 µM), the CHRF288-11 %inh is reported as -1.527%.

Turning to `CS(=O)(=O)CCNCc1ccc(-c2ccc3ncnc(Nc4ccc(OCc5ccccc5)c(C(F)(F)F)c4)c3c2)o1` [SJ000573124-1, U14859/90/2], the MOLM-13 %inh in the test on MOLM-13 was determined as 3.836%. Also, the ML-2 %inh with ML-2 was 3.074%. The MV4-11 %inh in the test on MV4-11 is on record as -0.8429%. Also, the U937 %inh in the test on U937 is listed as 1.669%. Moreover, in the test with CMK, the CMK %inh is listed as -0.3954%. Also, in the test on CMS, the CMS %inh is on record as -0.5761%. Besides, the M07e %inh in the test on M07e is recorded as -5.391%. The CHRF288-11 %inh in the test with CHRF288-11 is recorded as -4.921%.

As for `CCn1c(-c2nonc2N)nc2c(C#CC(C)(C)O)nc(OC[C@H](N)c3ccccc3)cc21` [SJ000573312-2, LS204454-145A1 | LS204454-146A1], in the test on MOLM-13, the MOLM-13 %inh amounted to 14.91%. Moreover, the ML-2 %inh in the test with ML-2 is recorded as 28.64%. In the test on MV4-11, the MV4-11 %inh was 22.87%. For the same compound, the U937 %inh in the test with U937 is 44.96%. In addition, the CMK %inh with CMK is on record as 111.5%. In the test on CMS, the CMS %inh is on record as 42.42%. For the same compound, the M07e %inh in the test on M07e came out at 46.62%. In addition, in the test with CHRF288-11, the CHRF288-11 %inh was 83.17%.

`C[C@H](CC[C@@H]1OC1(C)C)[C@H]1CC[C@H]2[C@@H]3CC=C4C[C@@H](O)CC[C@]4(C)[C@H]3CC[C@]12C` [SJ000561052-1, 24(S),25-EPOXYCHOLESTEROL]: in the test on MOLM-13, the MOLM-13 %inh was -3.183%. Further, the ML-2 %inh in the test on ML-2 is -2.235%. Moreover, the MV4-11 %inh with MV4-11 is -1.379%. The U937 %inh in the test on U937 is -2.032%. Besides, the CMK %inh with CMK worked out at 11.77%. Moreover, the CMS %inh in the test on CMS stood at 1.576%. Also, the M07e %inh with M07e was found to be 0.1627%. In addition, the CHRF288-11 %inh in the test on CHRF288-11 is 7.379%.

As for `Cn1cc(C2=C(c3cn(C)c4cc(C(N)=O)ccc34)C(=O)NC2=O)c2ccccc21` [SJ000581068-1], in the test with MOLM-13, the MOLM-13 %inh is given as 63.24%. Also, the ML-2 %inh in the test with ML-2 is recorded as 54.4%. Also, the MV4-11 %inh in the test with MV4-11 is recorded as 76.64%. The U937 %inh in the test on U937 came out at 75.21%. Also, in the test with CMK, the CMK %inh worked out at 87.67%. Moreover, the CMS %inh in the test on CMS stood at 51.9%. Moreover, the M07e %inh with M07e amounted to 58.86%. Further, the CHRF288-11 %inh in the test on CHRF288-11 is 59.82%.

The values are drawn from article PMC6522510 (Nature Communications, 2019).
